Results taken from patent publication US20240002438A1, “MELANOCORTIN LIGANDS AND METHODS OF USE THEREOF” (REGENTS OF THE UNIVERSITY OF MINNESOTA, priority 2021, published 2024).
Like-named read-outs stand apart in the source and are kept apart here. Where a SMILES comes first, the peptide text is derived from it. Primed or numbered codes have the meaning given here. [ ]: non-standard residue; d: D form. dBip = N[C@H](Cc1ccc(-c2ccccc2)cc1)C(=O)O; Oic = O=C(O)[C@@H]1C[C@@H]2CCCC[C@@H]2N1; dPhe(4-I) = N[C@H](Cc1ccc(I)cc1)C(=O)O; 2Nal = N[C@@H](Cc1ccc2ccccc2c1)C(=O)O; d2Nal = N[C@H](Cc1ccc2ccccc2c1)C(=O)O; Nle = CCCC[C@H](N)C(=O)O; Pip′ = not defined here

Key:
[1] = target: T1, MC3R (Homo sapiens, UniProt P41968); conditions: Grieco 2002; cited from earlier work
Target sequence in this assay (P41968 whole entry): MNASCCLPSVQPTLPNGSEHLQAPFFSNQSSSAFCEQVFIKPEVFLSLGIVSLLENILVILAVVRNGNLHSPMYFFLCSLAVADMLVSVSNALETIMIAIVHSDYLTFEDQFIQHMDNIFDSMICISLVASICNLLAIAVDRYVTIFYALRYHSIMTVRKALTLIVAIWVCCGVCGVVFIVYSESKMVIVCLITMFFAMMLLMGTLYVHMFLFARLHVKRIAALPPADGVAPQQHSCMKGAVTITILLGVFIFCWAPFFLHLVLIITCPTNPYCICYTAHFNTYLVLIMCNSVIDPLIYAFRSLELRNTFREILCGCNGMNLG

[2] = target: T2, MC4R (Homo sapiens, UniProt P32245); conditions: Grieco 2002; cited from earlier work
Target sequence in this assay (P32245 whole entry): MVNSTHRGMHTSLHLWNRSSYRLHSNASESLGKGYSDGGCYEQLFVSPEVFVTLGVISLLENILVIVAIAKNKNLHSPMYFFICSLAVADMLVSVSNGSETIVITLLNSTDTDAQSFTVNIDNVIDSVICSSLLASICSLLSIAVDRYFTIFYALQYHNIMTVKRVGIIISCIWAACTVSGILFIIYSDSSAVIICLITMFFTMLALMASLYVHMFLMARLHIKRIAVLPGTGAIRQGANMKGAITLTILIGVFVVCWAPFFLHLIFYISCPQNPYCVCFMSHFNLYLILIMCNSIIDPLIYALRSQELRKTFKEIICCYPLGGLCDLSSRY

[3] = Solubility in solvents compatible with RP-HPLC
[4] = target: T3, mMC1R (Mus musculus, UniProt Q01727); assay: cell-based
Experimental: (§1) Following stimulation, streptavidin donor beads (0.5 μg) and biotinylated-cAMP (0.62 μmol) were added to the wells in a green light environment with 10 μL of lysis buffer (5 mM HEPES, 0.3% Tween-20, 0.1% BSA, pH=7.4) and the plates were incubated in the dark at room temperature for an additional 2 h. Plates were read on a Enspire (PerkinElmer) Alpha-plate reader using a pre-normalized assay protocol (set by the manufacturer).

[5] = target: T4, mMC4R (Mus musculus, UniProt P56450); assay: cAMP AlphaScreen antagonist assay at mMC4R, NDP-MSH as agonist, HEK293 cells; conditions: for mMC4R antagonist pA2: NDP-MSH as agonist, HEK293 cells stably expressing mMC4R
Experimental: as §1

[6] = target: T2, MC4R; conditions: Nozawa 2007; cited from earlier work
Target sequence in this assay (P32245 whole entry): as above

[7] = target: T5, MC1R (Homo sapiens, UniProt Q01726); conditions: unable to displace at up to this concentration; Chaki 2003; read-out: displacement of radiolabeled NDP-MSH at hMC1R; cited from earlier work
Target sequence in this assay (Q01726 whole entry): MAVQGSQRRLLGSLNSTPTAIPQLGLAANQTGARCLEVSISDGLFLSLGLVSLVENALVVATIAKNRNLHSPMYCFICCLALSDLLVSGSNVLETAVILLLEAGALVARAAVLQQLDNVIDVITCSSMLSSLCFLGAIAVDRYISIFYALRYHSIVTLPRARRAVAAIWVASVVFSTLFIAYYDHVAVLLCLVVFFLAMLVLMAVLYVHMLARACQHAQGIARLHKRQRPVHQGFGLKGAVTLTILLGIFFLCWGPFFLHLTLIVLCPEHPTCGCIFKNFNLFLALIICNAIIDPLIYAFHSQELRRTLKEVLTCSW

[8] = target: T1, MC3R; conditions: Chaki 2003; read-out: binding affinity at hMC3R; cited from earlier work
Target sequence in this assay (P41968 whole entry): as the sequence (P41968 whole entry) above

[9] = target: human (h)MC4R (Homo sapiens, UniProt P32245); conditions: Chaki 2003; read-out: binding affinity at hMC4R; cited from earlier work
[10] = target: T6, mMC3R (Mus musculus, UniProt P33033); assay: cAMP AlphaScreen antagonist assay at mMC3R, NDP-MSH as agonist, HEK293 cells; conditions: for mMC3R antagonist pA2: NDP-MSH as agonist, HEK293 cells stably expressing mMC3R
[11] = target: T6, mMC3R; assay: cAMP AlphaScreen agonist assay at mMC3R, HEK293 cells; conditions: up to 100 μM
Experimental: as §1

[12] = target: T7, mMC5R (Mus musculus, UniProt P41149); assay: cAMP AlphaScreen agonist assay at mMC5R, HEK293 cells; conditions: for mMC5R agonist activity: up to 100 μM
Experimental: as §1

[13] = target: T3, mMC1R; conditions: for mMC1R agonist activity: up to 100 μM
Experimental: as §1

[14] = target: T4, mMC4R; assay: cAMP AlphaScreen agonist assay at mMC4R, HEK293 cells; conditions: for mMC4R agonist activity: up to 100 μM
Experimental: as §1

[15] = target: T2, MC4R; conditions: unable to displace at up to this concentration; read-out: displacement of NDP-MSH at the MC4R; cited from earlier work
Target sequence in this assay (P32245 whole entry, species assumed): as the sequence (P32245 whole entry) above

[16] = target: T1, MC3R; conditions: at 2 μM; cited from earlier work
Target sequence in this assay (P41968 whole entry, species assumed): as the sequence (P41968 whole entry) above

[17] = target: T5, MC1R; conditions: unable to displace at up to this concentration; read-out: displacement of NDP-MSH at the MC1R; cited from earlier work
Target sequence in this assay (Q01726 whole entry, species assumed): as the sequence (Q01726 whole entry) above

[18] = target: T1, MC3R; conditions: unable to displace at up to this concentration; read-out: displacement of NDP-MSH at the MC3R; cited from earlier work
Target sequence in this assay (P41968 whole entry, species assumed): as the sequence (P41968 whole entry) above

[19] = target: T8, MC5R (Homo sapiens, UniProt P33032); conditions: Bednarek, cited from earlier work
[20] = target: T5, MC1R; conditions: at 2 μM; cited from earlier work
Target sequence in this assay (Q01726 whole entry, species assumed): as the sequence (Q01726 whole entry) above

[21] = target: T8, MC5R; conditions: Bednarek, cited from earlier work; remark: listed apart in the source
[22] = target: T2, MC4R; conditions: at 2 μM; cited from earlier work
Target sequence in this assay (P32245 whole entry, species assumed): as the sequence (P32245 whole entry) above

[23] = target: T6, mMC3R; parameters: expressed in transfected cells; host or cells: HEK293; conditions: Doering 2017; cited from earlier work
[24] = target: T4, mMC4R; parameters: expressed in transfected cells; host or cells: HEK293; conditions: cited from earlier work
[25] = target: T7, mMC5R; parameters: expressed in transfected cells; host or cells: HEK293; conditions: Doering 2017; cited from earlier work
[26] = target: T6, mMC3R; parameters: expressed in transfected cells; host or cells: HEK293; conditions: Doering 2017; cited from earlier work; remark: listed apart in the source
[27] = target: T4, mMC4R; parameters: expressed in transfected cells; host or cells: HEK293; conditions: Doering 2017; cited from earlier work

T8 sequence (P33032 whole entry, species assumed): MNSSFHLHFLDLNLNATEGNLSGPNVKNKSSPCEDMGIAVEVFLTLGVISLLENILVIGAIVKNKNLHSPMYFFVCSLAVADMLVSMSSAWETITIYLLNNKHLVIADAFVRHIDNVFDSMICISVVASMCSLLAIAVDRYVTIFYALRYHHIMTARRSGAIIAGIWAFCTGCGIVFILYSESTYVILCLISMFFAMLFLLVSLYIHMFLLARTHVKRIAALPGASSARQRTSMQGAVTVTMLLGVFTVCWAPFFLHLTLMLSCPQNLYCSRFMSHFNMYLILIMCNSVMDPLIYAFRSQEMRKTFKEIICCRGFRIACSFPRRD
T6 sequence (P33033 whole entry): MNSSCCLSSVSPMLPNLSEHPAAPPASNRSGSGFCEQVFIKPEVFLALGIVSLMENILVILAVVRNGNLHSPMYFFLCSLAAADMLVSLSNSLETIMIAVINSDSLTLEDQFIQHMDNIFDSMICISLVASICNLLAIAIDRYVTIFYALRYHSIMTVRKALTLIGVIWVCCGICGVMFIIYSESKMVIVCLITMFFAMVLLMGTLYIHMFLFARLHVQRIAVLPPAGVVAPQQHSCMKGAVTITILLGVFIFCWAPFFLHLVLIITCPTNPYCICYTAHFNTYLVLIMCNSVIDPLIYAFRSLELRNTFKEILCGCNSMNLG
T4 sequence (P56450 whole entry): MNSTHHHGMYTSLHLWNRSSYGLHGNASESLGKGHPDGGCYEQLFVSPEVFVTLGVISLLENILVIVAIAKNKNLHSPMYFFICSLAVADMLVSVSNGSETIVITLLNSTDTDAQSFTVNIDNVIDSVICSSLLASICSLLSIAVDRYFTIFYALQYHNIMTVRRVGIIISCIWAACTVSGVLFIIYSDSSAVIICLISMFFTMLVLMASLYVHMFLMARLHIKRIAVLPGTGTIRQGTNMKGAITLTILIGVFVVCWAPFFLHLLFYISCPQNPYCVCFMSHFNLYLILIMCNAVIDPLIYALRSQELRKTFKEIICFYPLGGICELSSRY
T7 sequence (P41149 whole entry): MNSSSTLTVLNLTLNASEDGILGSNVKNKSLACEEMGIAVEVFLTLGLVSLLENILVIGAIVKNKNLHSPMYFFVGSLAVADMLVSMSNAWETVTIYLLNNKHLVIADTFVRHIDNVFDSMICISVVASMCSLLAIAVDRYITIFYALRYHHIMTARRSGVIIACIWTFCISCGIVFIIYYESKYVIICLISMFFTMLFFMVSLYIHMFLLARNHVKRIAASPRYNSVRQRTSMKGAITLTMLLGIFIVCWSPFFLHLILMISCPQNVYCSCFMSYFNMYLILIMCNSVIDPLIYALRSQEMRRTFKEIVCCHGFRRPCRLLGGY
T3 sequence (Q01727 whole entry): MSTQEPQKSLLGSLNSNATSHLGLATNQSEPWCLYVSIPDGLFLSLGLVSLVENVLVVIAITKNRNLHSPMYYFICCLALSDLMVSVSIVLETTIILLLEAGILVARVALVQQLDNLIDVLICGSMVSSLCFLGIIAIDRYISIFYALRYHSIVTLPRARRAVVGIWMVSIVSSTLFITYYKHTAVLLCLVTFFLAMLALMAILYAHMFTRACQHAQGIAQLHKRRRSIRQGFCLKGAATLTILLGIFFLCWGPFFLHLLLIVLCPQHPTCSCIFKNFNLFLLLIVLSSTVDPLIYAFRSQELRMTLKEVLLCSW
human (h)MC4R, sequence (P32245 whole entry): as the sequence (P32245 whole entry) above

Ac-Nle-c[Asp-Pro-DNal(2′)-Arg-Trp-Lys]-NH2 [PG901]
hMC3R antagonist pA2 [1]: 9.0 | hMC4R antagonist pA2 [2]: 9.3

CC(=O)N[C@H](Cc1ccc2ccccc2c1)C(=O)N[C@H](Cc1ccc2ccccc2c1)C(=O)N[C@H](Cc1ccc2ccccc2c1)C(=O)N[C@H](Cc1ccc2ccccc2c1)C(N)=O [Ac-DNal(2′)-DNal(2′)-DNal(2′)-DNal(2′)-NH2] (Ac-[d2Nal][d2Nal][d2Nal][d2Nal]-NH2)
solubility in solvents compatible with RP-HPLC [3]: insoluble

CC(=O)N[C@H](Cc1ccc2ccccc2c1)C(=O)N[C@@H](CCCNC(=N)N)C(=O)N[C@@H](Cc1ccc2ccccc2c1)C(=O)N[C@H](CCCCN)C(N)=O [compound 22, Ac-DNal(2′)-Arg-Nal(2′)-DLys-NH2] (Ac-[d2Nal]R[2Nal][dK]-NH2)
EC50 [4]: 400 to 7900 nM | mMC4R antagonist pA2 [5]: 7.8

Ac-DNal(2′)-Arg-Nal(2′) [MCL0020]
IC50 [6]: 15.4 nM | IC50 [7]: > 10000 nM | IC50 [8]: 1120 nM | IC50 [9]: 11.6 nM

CC(=O)N[C@H](Cc1ccc(I)cc1)C(=O)N[C@H](Cc1ccc2ccccc2c1)C(=O)N[C@H](Cc1ccc(I)cc1)C(=O)N[C@@H](CCCNC(=N)N)C(N)=O [compound 33, Ac-DPhe(pI)-DNal(2′)-DPhe(pI)-Arg-NH2] (Ac-[dPhe(4-I)][d2Nal][dPhe(4-I)]R-NH2)
mMC3R antagonist activity ([10]; at the concentrations assayed): did not act as antagonists | mMC3R agonist activity [11]: inactive | EC50 [12]: 30 to 800 nM | EC50 ([12]; read-out: mMC5R agonist EC50): 130 nM | mMC5R agonist activity [12]: full mMC5R agonists | mMC1R agonist activity [13]: partially stimulate | mMC4R agonist activity [14]: inactive

Ac-Nle-c[Asp-Oic-DBip-Pip-Trp-Lys]-NH2
IC50 [15]: > 5000 nM | activation of the MC3R [16]: up to 40% | IC50 [17]: > 5000 nM | IC50 [18]: > 5000 nM | EC50 ([19]; J. Med. Chem. 2007, read-out: concentration activating the MC5R): 0.99 nM | activation of the MC1R [20]: up to 40% | IC50 ([21]; J. Med. Chem. 2007, read-out: concentration displacing radiolabeled NDP-MSH at the MC5R): 0.95 nM | activation of the MC4R [22]: up to 40%

Ac-[dPhe(4-I)]R[2Nal]R-NH2 [compound 48]
mMC3R antagonist pA2 [10]: 7.8 | mMC4R partial activation, % of the maximal NDP-MSH signal ([14]; 100 μM): 25% | MC4R antagonist potency compared to endogenous AGRP(86-132) [5]: about equipotent | mMC4R antagonist pA2 [5]: 9.0

Ac-DNal(2′)-Arg-DNal(2′)
IC50 [6]: 36.5 nM

Ac-Oic-DBip-Pip-Trp-NH2
EC50 ([19]; Peptides 2007, read-out: agonist potency at the MC5R): 1200 nM

CC(=O)N[C@H](Cc1ccc2ccccc2c1)C(=O)N[C@@H](CCCNC(=N)N)C(=O)N[C@H](Cc1ccc(I)cc1)C(=O)N[C@H](Cc1ccc2ccccc2c1)C(N)=O [compound 20] (Ac-[d2Nal]R[dPhe(4-I)][d2Nal]-NH2)
mMC3R antagonist pA2, previously reported [23]: 5.6 | mMC3R antagonist pA2 [10]: 6.1 | mMC4R partial agonist efficacy, % of the maximal NDP-MSH signal, previously reported ([24]; Doering 2017): 37% | mMC5R partial agonist efficacy, % of the maximal NDP-MSH signal, previously reported [25]: 43% | mMC3R partial agonist efficacy, % of the maximal NDP-MSH signal, previously reported [26]: 40% | EC50 ([13]; read-out: mMC1R agonist EC50): 5000 nM | mMC1R agonist activity [13]: full agonist activity | mMC4R antagonist pA2, previously reported [27]: 5.9 | mMC4R antagonist pA2 [5]: 6.5

Ac-Phe(pI)-Nal(2′)-Phe(pI)-Arg-NH2 [compound 49]
mMC3R agonist activity [11]: inactive | mMC5R agonist activity [12]: did not possess agonist activity | mMC1R agonist activity [13]: partially stimulate | mMC4R agonist activity [14]: inactive

Ac-Ser-Tyr-Ser-Nle-Glu-Oic-DBip-Pip-Trp-Gly-Lys-Pro-Val-NH2 (Ac-SYS[Nle]E[Oic][dBip][Pip′]WGKPV-NH2; reading uncertain; also: printed as Ac-Ser-Tyr-Ser-Nle-Glu-Oic-DBip-Pip-Trp-Gly-Lys-Pro-Val-NH2)
MC5R agonist potency ([19]; Peptides 2007): sub-nanomolar | selectivity for the MC5R by radiolabeled 125I-NDP-MSH displacement ([21]; Peptides 2007): greater than 3200 fold

Ac-His-DPhe-Arg-Trp-NH2 [reference compound]
agonist potency at the mMC4R ([24]; Haskell-Luevano 2001): nanomolar
